The values below come from ChEMBL document CHEMBL1201862, “PubChem BioAssay data set” (2004).

Calls of active or inactive are those of the source.

Test [1] deals with MDCK. Kind of test: antiviral activity against H1N1 influenza, dose response, cell-based, strain KY180 (AID 540254). The format is functional. The following applies: Canis lupus familiaris.
Test [2] deals with MDCK. Kind of test: antiviral activity against H1N1 influenza, dose response, cell-based, strain KY136 (AID 540257). In kind it is functional. The following applies: Canis lupus familiaris.
In test [3] the target is Nonstructural protein 1 (Influenza A virus, UniProt Q194T2). The format is functional, Influenza A virus (A/California/07/2009(H1N1)).
Test [4] concerns Vero. Briefly: Vero E6 cell cytotoxicity, dose response, cytotoxicity control (AID 540298). In kind it is functional. The following applies: Chlorocebus sabaeus.
Test [5] deals with MDCK. Briefly: MDCK cell cytotoxicity, dose response, cytotoxicity control (AID 540296). The format is functional. The following applies: Canis lupus familiaris.
For test [6], the target named is T1, High affinity choline transporter 1 (Homo sapiens, UniProt Q9GZV3).
T1 sequence (Q9GZV3 whole entry): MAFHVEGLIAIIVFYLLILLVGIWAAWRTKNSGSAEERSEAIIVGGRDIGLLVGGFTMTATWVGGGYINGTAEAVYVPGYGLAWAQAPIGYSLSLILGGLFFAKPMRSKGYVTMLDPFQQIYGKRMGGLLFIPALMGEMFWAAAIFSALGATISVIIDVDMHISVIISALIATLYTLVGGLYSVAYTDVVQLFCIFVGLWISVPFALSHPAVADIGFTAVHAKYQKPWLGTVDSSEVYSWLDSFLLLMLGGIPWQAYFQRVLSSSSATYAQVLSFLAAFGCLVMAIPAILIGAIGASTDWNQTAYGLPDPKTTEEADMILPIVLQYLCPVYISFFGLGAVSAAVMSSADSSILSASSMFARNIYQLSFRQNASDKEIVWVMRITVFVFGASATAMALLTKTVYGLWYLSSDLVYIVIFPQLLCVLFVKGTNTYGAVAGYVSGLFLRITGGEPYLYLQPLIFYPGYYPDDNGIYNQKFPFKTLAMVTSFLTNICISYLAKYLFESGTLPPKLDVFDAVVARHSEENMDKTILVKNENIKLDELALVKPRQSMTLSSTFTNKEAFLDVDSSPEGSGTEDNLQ
Kind of test: human choline transporter blockers, potency – cell-based, 5-point CRC, membrane potential dye, dose response (AID 504840). The format is functional.

Test [7] addresses Beta-2 adrenergic receptor (Homo sapiens, UniProt P07550). Kind of test: ADRB2 activation measured by internalization – cell-based, FAP fluorogen, flow cytometry, cherry pick 1, dose response (AID 588763). The format is functional. In general terms: In flow cytometry, cells or beads pass a laser one at a time.
Test [8] concerns the target T2, Streptokinase A (Streptococcus pyogenes serotype M1, UniProt P10520).
T2 sequence (P10520 whole entry): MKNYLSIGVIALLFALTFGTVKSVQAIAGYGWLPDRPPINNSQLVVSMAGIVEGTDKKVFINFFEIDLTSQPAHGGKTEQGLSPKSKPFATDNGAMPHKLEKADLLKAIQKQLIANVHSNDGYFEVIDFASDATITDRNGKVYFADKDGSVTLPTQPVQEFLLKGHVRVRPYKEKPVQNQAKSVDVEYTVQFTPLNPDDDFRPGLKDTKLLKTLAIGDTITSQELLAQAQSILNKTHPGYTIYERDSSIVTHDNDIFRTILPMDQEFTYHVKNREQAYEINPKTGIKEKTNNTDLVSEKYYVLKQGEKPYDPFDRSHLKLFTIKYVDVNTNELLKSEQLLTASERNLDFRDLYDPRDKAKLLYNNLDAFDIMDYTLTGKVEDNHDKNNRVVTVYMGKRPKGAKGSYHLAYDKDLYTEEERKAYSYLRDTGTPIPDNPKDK
Briefly: viability-normalized secreted streptokinase activity reduction – plasminogen activation absorbance, OD405, dose response (AID 1914).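 Note: secreted streptokinase activity via plasminogen activation per viability signal from cell pellet.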 The format is functional, Streptococcus pyogenes M1 GAS.

Test [9] deals with Streptococcus sp. 'group A'. Kind of test: Streptococcus pyogenes SK(-)GAS viability under kanamycin – luminescence, BacTiterGlo, confirmation, counter-screen for streptokinase expression inhibitor project, dose response (AID 1900). In kind it is functional, organism-based. Background: Counterscreens check selectivity or assay interference.
Test [10] addresses T3, Serine/threonine-protein phosphatase (Candida dubliniensis (strain CD36 / CBS 7987 / NCPF 3949 / NRRLY-17841) (Yeast), UniProt B9W6M3).
T3 sequence (B9W6M3 whole entry): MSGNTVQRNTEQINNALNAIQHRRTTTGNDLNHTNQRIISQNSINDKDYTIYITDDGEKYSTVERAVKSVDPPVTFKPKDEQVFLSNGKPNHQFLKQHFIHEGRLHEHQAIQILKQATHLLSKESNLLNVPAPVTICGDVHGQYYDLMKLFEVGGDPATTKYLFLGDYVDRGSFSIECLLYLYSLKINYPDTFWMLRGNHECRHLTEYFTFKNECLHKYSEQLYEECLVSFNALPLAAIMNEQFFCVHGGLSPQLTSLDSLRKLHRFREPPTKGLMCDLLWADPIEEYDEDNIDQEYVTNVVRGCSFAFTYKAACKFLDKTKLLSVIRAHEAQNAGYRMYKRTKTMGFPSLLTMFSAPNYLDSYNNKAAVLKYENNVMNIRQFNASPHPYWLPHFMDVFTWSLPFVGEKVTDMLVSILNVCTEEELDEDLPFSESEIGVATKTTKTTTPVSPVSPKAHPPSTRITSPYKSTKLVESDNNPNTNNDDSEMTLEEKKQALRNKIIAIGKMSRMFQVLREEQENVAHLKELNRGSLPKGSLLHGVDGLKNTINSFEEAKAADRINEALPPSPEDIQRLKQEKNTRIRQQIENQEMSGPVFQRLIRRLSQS
Briefly: blockers of CaCl2-induced CDRE-lacZ signaling – S. cerevisiae, luminescence, secondary, dose response (AID 2388).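 Note: yeast reporter cells carrying a calcineurin-responsive lacZ construct stimulated with calcium chloride; luminescent beta-galactosidase reporter signal in whole cells rather than isolated phosphatase activity; potency for inhibition where a drop in reporter signal means calcineurin blockade.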 The format is functional, cell-based.

Test [11] concerns the target ATP-dependent molecular chaperone HSP82 (Candida albicans (strain WO-1) (Yeast), UniProt C4YTQ8). Briefly: steroid-induced GRE reporter decrease in yeast – S. cerevisiae, luminescence, Hsp90 inhibitor project, dose response (AID 2400).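 Note: beta-galactosidase luminescence from glucocorticoid response element reporter as proxy for Hsp90 function; inhibitor potency where signal loss means Hsp90 inhibition.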 In kind it is functional, cell-based.
Test [12] in a line: cells. In kind it is functional, cell-based.
Test [13] is described as follows: Luminescence-based dose response cell-based high throughput screening assay for cytotoxic compounds using the IEC-6 intestinal epithelial cell line. [Related pubchem assays: 1858 (Summary AID.), 1825 (Counterscreen.), 1907 (Confirmation screen.)]. The format is functional.
A short description of test [14]: HEK-293T viability loss after treatment – luminescence, T-cell screen hits, cytotoxicity control for TCR NF-kB inhibitor project, dose response (AID 489026).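 Note: cells exposed to compound about 14 hours before the viability readout.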 The format is functional, cell-based.
For test [15], the system named is Jurkat. Kind of test: SAR Analysis of small molecule inhibitors of T-cell specific antigen receptor-induced NF-kB activation in a Jurkat cell line using a luminescence assay - Set 2. [Related pubchem assays (depositor defined):AID435003, AID435012, AID465]. The format is functional, cell-based. The following applies: Homo sapiens.
Test [16] can be described thus: fluconazole-exposed Candida albicans growth modulators – fluorescence, retest, confirmation (AID 2467). The format is functional, cell-based.
Test [17] deals with HEK293. Kind of test: SAR Analysis of small molecule inhibitors of T-cell specific antigen receptor-induced NF-kB activation in a HEK-293T cell line using a luminescence assay - Set 2. [Related pubchem assays (depositor defined):AID435003, AID435012, AID489026]. The format is functional, cell-based. The following applies: Homo sapiens.
The nature of test [18]: Trypanosoma cruzi growth suppression in host cells – NIH3T3 host cells, beta-gal luminescence, confirmation (AID 2044).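 Note: intracellular parasites grown in NIH/3T3 mouse fibroblasts as host cells; luminescent beta-galactosidase reporter signal from transgenic T. cruzi replicating inside host cells; inhibitors lower the luminescence signal.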 In kind it is functional, cell-based.
In test [19] the target is Exodeoxyribonuclease V (Escherichia coli (strain K12), UniProt P04993+P07648+P08394). Kind of test: RecBCD inhibition via phage-restricted bacterial growth – absorbance, V66 E. coli, mutant T4 phage, counter-screen for AddAB inhibitor project, dose response (AID 492957). In kind it is functional, cell-based, Escherichia coli str. K-12 substr. MG1655.
The target of test [20] is Heat shock protein HSP 90-alpha (Homo sapiens, UniProt P07900). In kind it is functional, organism-based.
Test [21] concerns Jurkat. Kind of test: SAR Analysis of small molecule inhibitors of T-cell specific antigen receptor-induced NF-kB activation in a Jurkat cell line using a luminescence assay. [Related pubchem assays (depositor defined):AID435003, AID435012, AID465]. The format is functional, cell-based. The following applies: Homo sapiens.
The test system of test [22] is Streptococcus. Briefly: GAS UMAA2166 growth inhibition – luminescence, BacTiterGlo, counter-screen for streptokinase expression inhibitor project, dose response (AID 1915).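 Note: potency for reduction of bacterial viability or growth.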 In kind it is functional, organism-based.
Test [23] in a line: cells. In kind it is functional, cell-based. The source holds these as a separate data set.
Test [24] concerns HEK293. Briefly: SAR Analysis of small molecule inhibitors of T-cell specific antigen receptor-induced NF-kB activation in a HEK-293T cell line using a luminescence assay. [Related pubchem assays (depositor defined):AID435003, AID435012, AID489026]. In kind it is functional, cell-based. The following applies: Homo sapiens.
For test [25], the system named is HEK293. Briefly: HEK293T cell viability loss, resazurin readout – resazurin fluorescence, cytotoxicity control for NF-kB activator project, SAR follow-up (AID 493251). The format is functional, cell-based.
Test [26] in a line: NIH-3T3 fibroblast cytotoxicity, dose response, cytotoxicity control, cell-based, fluorescence, Alamar Blue, secondary assay (AID 2327).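 Note: NIH-3T3 mouse fibroblasts cultured with fluconazole at 8 µg/mL.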 In kind it is functional. (In general: Resazurin is reduced to fluorescent resorufin, in cell work by metabolically active cells.)
The nature of test [27]: Counterscreen for AddAB inhibitors: absorbance-based bacterial cell-based high throughput dose response assay for inhibitors of bacterial viability. [Related pubchem assays (depositor defined):AID435030, AID449728, AID449731, AID488942, AID488955, AID488956]. In kind it is functional.
The nature of test [28]: NIH3T3 cell viability loss – ATP luminescence, mouse fibroblasts, counter-screen, dose response (AID 2010).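 Note: cells exposed to compound for about 90 hours before reading.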 The format is functional, cell-based.
Test [29] deals with HEK293. Kind of test: EBV LMP1 TES2 canonical NF-kB signalling blockers – cell-based, HEK293, luciferase, cherry-pick, dose response (AID 588343). In kind it is functional. The following applies: Homo sapiens.
The test system of test [30] is INS1. Kind of test: INS-1E survival protection against cytokine death – cell-based, luminescence, retest, dose response (AID 449756).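 Note: cell death triggered by IL-1 beta plus TNF-alpha plus IFN-gamma mixture; protective hits raise ATP signal compared with cytokine alone wells.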 In kind it is functional. The following applies: Rattus norvegicus.

Sequence of Beta-2 adrenergic receptor (P07550 whole entry): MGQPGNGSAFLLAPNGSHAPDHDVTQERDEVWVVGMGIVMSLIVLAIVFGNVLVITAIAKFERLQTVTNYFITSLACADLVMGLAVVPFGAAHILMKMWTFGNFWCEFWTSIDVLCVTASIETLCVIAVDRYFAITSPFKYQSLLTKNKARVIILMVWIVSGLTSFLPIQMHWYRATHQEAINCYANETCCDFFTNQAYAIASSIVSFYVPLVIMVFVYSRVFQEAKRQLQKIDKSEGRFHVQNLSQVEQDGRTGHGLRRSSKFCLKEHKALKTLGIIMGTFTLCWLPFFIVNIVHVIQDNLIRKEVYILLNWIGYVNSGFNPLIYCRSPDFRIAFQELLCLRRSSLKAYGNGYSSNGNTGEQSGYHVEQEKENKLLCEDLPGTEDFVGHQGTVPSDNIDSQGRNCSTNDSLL
Sequence of ATP-dependent molecular chaperone HSP82 (C4YTQ8 whole entry): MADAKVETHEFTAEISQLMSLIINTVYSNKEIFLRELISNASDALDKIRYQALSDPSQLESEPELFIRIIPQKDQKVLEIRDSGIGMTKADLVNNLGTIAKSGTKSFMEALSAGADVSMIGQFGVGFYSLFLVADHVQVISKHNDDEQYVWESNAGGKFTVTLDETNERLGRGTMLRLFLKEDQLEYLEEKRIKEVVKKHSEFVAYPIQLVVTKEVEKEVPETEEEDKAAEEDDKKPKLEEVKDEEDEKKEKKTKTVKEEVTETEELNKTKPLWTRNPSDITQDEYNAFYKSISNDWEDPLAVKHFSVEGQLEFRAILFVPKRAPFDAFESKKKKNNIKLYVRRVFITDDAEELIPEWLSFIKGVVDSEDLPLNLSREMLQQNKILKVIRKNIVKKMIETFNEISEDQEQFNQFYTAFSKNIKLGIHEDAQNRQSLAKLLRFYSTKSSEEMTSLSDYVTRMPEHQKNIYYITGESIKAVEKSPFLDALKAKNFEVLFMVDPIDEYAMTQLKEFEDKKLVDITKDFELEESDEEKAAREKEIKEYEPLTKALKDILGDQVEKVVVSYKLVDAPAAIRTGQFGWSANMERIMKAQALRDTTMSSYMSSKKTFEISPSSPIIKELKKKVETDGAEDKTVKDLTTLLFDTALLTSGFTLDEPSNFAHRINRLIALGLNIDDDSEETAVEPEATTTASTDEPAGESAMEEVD
Sequence of Exodeoxyribonuclease V (P04993 whole entry): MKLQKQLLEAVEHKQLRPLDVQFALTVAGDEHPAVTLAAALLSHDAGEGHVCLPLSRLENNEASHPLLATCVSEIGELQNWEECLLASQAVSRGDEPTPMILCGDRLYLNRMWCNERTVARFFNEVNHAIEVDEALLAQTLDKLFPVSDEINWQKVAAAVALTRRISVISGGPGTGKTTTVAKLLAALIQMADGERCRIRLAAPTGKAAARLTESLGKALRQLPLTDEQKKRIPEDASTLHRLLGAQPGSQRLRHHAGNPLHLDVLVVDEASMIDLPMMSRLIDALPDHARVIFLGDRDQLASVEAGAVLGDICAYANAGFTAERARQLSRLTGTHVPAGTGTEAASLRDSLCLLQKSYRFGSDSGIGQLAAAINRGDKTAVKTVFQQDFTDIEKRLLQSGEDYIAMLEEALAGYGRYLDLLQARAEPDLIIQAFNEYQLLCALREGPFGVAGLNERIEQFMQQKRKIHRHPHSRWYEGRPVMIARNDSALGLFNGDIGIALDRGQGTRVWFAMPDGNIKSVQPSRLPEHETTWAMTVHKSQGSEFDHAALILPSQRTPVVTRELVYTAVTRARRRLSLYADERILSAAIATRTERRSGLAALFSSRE
Sequence of Exodeoxyribonuclease V (P07648 whole entry): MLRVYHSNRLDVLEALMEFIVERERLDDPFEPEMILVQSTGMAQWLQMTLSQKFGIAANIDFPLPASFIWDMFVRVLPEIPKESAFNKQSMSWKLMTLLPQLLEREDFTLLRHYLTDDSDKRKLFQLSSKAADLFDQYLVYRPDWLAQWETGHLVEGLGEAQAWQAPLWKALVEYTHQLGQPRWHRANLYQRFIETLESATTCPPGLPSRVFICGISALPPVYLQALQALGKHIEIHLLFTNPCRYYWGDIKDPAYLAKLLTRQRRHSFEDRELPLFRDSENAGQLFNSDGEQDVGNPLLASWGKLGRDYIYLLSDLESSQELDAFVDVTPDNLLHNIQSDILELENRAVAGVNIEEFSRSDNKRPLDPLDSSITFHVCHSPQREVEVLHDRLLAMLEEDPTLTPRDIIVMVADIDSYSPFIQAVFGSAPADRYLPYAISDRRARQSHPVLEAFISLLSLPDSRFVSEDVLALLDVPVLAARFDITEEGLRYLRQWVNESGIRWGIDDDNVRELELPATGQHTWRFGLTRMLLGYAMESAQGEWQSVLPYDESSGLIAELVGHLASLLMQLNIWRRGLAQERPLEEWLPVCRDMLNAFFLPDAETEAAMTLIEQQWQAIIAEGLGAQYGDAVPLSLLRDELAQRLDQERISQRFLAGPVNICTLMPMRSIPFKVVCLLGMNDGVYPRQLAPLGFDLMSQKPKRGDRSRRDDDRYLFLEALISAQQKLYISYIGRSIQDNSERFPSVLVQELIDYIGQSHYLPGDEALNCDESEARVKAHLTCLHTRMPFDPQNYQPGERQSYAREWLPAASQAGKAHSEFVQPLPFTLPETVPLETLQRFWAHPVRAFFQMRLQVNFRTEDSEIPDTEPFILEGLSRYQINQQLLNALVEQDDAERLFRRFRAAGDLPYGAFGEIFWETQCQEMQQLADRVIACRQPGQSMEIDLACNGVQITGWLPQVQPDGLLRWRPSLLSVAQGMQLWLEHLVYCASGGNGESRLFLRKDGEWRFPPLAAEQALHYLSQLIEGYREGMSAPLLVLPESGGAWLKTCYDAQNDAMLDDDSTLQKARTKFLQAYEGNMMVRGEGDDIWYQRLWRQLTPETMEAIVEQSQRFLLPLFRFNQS
Sequence of Exodeoxyribonuclease V (P08394 whole entry): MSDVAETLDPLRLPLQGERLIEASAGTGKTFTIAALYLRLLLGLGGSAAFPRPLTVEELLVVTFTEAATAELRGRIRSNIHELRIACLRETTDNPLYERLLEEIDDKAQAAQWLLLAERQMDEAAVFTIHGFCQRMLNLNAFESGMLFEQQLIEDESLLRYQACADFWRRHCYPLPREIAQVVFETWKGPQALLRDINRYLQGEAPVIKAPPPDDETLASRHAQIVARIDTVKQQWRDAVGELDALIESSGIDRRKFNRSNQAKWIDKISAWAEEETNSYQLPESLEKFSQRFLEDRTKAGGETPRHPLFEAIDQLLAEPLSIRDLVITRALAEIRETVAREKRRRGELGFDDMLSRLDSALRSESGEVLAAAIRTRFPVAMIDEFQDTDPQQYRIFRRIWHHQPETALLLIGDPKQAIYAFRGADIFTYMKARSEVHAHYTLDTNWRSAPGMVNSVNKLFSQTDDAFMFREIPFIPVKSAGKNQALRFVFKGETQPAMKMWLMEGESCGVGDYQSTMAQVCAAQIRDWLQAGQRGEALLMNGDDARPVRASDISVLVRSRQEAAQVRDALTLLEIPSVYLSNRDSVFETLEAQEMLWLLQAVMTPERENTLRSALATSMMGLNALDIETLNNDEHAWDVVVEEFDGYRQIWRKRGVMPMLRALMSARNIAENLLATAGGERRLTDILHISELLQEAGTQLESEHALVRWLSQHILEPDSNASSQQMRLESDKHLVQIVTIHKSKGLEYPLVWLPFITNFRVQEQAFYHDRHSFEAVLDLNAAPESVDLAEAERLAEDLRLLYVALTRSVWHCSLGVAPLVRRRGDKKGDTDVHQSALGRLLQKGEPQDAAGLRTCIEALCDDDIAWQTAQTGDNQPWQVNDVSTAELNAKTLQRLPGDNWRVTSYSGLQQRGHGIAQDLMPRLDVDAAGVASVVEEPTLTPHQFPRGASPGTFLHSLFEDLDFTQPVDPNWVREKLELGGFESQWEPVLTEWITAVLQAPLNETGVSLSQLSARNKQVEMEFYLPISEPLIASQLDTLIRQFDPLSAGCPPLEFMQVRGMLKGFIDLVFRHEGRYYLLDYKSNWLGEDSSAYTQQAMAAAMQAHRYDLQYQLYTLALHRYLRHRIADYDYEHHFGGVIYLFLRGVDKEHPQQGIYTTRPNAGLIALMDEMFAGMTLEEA
Sequence of Nonstructural protein 1 (Q194T2 whole entry): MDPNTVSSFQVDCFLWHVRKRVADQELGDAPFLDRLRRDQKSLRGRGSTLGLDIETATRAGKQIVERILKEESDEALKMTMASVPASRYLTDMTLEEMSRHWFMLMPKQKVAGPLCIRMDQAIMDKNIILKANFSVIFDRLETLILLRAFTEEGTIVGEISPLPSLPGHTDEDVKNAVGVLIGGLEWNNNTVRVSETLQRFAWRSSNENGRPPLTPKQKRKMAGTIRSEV

With `O=C(Nc1cccc(CNCCc2c[nH]c3ccccc23)c1)c1ccccc1Cl`, the IC50 (as a rule, the concentration needed to halve the response being measured) is > 100 µM (active) in test [1], 2.93 µM (active) in test [2], > 100 µM (active) in [3] and 17.4 µM (active) in test [6]. For the same compound, the CC50 (as a rule, the concentration at which the toxic effect on the cells reaches its halfway point) in test [4] was 22.4 µM (active); in test [5], 10.9 µM (active).

As for `Cc1ccc(OCc2nnc(SCc3nc4ccccc4[nH]3)n2Cc2ccco2)cc1`, the EC50 – broadly, the concentration needed to bring the measured effect to its halfway point – in [7] is 1.08 µM (active).

As to `CCCC(=O)NC(c1ccc(C)cc1)c1ccc2cccnc2c1O` (stereo unspecified), the EC50 is > 150 µM (not active) in [8]; 6.65 µM (active) in test [9]; > 180 µM (inactive) in [10]; > 150 µM (inactive) in [11]; 6.34 µM (active) in test [12]; 0.449 µM (active) in test [16]. Moreover, the concentration for a half-maximal effect (EC50) was 0.348 µM (active) in test [18]; 14.7 µM (active) in test [22]; > 350 µM (not active) in [23]; 23.6 µM (inconclusive) in test [26]; 0.588 µM (active) in [28]. Further, the concentration for half-maximal inhibition (IC50) was 1.47 µM (active) in test [13]; > 80 µM (inactive) in test [14]; 2.52 µM (active) in test [15]; 6.36 µM (active) in test [17]; > 119 µM (inactive) in test [19]; 3.79 µM (active) in [21]. The concentration for half-maximal inhibition (IC50) in test [24] is 6.94 µM (active); in [25] (Homo sapiens, HEK293) it was 8.08 µM (active); in test [25] (hek293), 5.93 µM (active); in test [27], > 119 µM (inactive). In addition, the AC50 – broadly, the concentration at which the activity in the assay is half-maximal – is 3.35 µM (active) in test [20], 4.94 µM (active) in test [29] and 0.535 µM (active) in [30].
